Measured values from US7378274B2, “Regulatory nucleic acid for the ABC1 gene, molecules modifying its activity and therapeutic uses” (Aventis Pharma S.A., priority 2000, dated 2008).

Key:
human ABC1 promoter = experiment: Luciferase reporter under control of the -200 bp human ABC1 promoter (wild type or E-box mutant), transfected RAW 264.7 cells; format: cell-based; details: 24 hours, 10 μM 9CRA, 2 μg/ml 22(R)-HOch
From the text: Plasmids containing mutant SP1, AP1, E-box, LXR and deleted E-box fragments were constructed by site-directed mutagenesis using the overlap PCR method and the PXP1 −995 to +120 bp construct (Previato et al., JBC, 1991, 266:18958-63) as template. The primers listed below were used to amplify −200 to +44 bp of the human ABC1 promoter. Upper-case letters represent wild-type sequence whereas lower-case letters represent mutant sequence.
S224-HindIII and 44-HindIII were the upstream and downstream primers used for overlap PCR. The Hind III sites are underlined. The resulting fragments which spanned −200 to +44 of the human ABC1 gene were ligated into the HindIII site of the PXP1 luciferase reporter plasmid (Nordeen et al., Biotechniques, 1988, 6:454-457). All constructs were confirmed by sequencing.
Murine macrophage RAW 264.7 cells and human embryonic kidney 293 cells (American Type Culture Collection, Rockville, Md.) were grown in Dulbecco's modified Eagle's medium (DMEM) with 10% fetal calf serum (FCS). Approximately 1.5×10^5 cells were plated in 12-well plates (Costar, Corning, N.Y.), grown to 50-70% confluency and cotransfected with 1.5 μg of the ABC1 promoter-luciferase plasmid and 0.5 μg of the β-galactosidase vector (pCMVβ;Clontech, Palo Alto, Calif.) by using the Superfectin Reagent Kit (Qiagen, Valencia, Calif.). […]

[1] = test system: E-box in the human ABC1 gene promoter; experiment: Gel mobility shift assay of E-box (EB) probe with RAW cell nuclear extracts; format: binding; details: nuclear extracts of stimulated versus unstimulated RAW cells
From the text: Three double-stranded human ABC1 promoter fragments (Fragment A spanning −171 to −71 bp; Fragment EB spanning −156 to −130 bp and Fragment EB spanning −156 to −130 bp) were end-labeled with […] using T4 polynucleotide kinase (Lofstrand, Gaithersburg Md.). Nuclear extracts were isolated from unstimulated RAW 264.7 cell and HepG2 cell as well as RAW 264.7 cells after stimulation with the same concentrations of cholesterol and 22(R)-Hch shown above (Paragon Bioservices Inc. Baltimore, Md.). One ng (10,000 cpm) of radiolabelled probe was added to 2.5 μg nuclear extract in 20 ul of a 20 mM TRIS gel shift buffer (pH 7.9) containing 60 mM KCl, 0.2 mM EDTA, 0.5 mM DTT, 0.25 mM PMS, 1.3 mM MgCl, 10% glycerol, 3% Ficoll and 3 μg of double-stranded poly (dldC) as described (Previato et al., J Biol Chem, 1991, 266:18958-18963) and incubated for 10 minutes on ice followed by 10 minutes at room temperature. The incubated mixture was loaded on a 6% polyacrylamide gel in 0.25×TBE buffer and electrophoresed at 100 V for 90 min followed by autoradiography. For competition assays, nuclear extracts were preincubated for 10 minutes on ice in a 20 μl reaction mixture in the presence or absence of a 100-200-fold excess of double-stranded DNA competitors for Sp1 (−173 to −155 bp), AP1 (−135 to −155 bp), LXR (−54 to −69 bp) and E-box (−158 to −136 bp) before addition of probe. […]

[2] = test system: regulatory nucleic acid for the human ABC1 gene; experiment: Luciferase reporter under control of the -995 to +120 regulatory nucleic acid for the human ABC1 gene, transfected Hepa1-6 cells; format: cell-based
From the text: The region of the regulatory acid for the human ABC1 gene which ranges from the nucleotide at position −-995 up to the nucleotide at position +120, with respect to the transcription start site, was amplified by the PCR technique, with the aid of the following pair of primers: • forward primer S995 (SEQ ID No. 12), of sequence 5′-TTGCCGTCGACTGTTTTGGGTAGTTT-3′; and • reverse primer +220R (SEQ ID No. 13), of sequence 5′-GCCCTGTCGACCGGCTCTGTTGGT-3′, • From human genomic DNA present in a BAC vector from a collection of human BAC vectors.
The DNA fragment amplified was digested with the restriction endonuclease Sal 1, and then inserted into the vector PXP1 described by Nordeen et al. (1988, BioTechniques, 6: 454-457), at the Sal 1 restriction site of this vector.
Cells of the Hepa1-6 line (ATCC, Rockville, Md., USA) were cultured in the medium E-MEM (Minimum Essential Medium with Earle's Salts), to which 10% (v/v) of fetal calf serum (BioWhittaker, Walkersville, Md.) was added.
Approximately 1.5×10^5 cells were distributed into each of the wells of a 12-well (2.5 cm) culture plate, and were cultured until approximately 50 to 70% confluence, and were then cotransformed with 1 μg of the plasmid Sal-Lucif and 0.5 μg of the control vector pBetagel (CloneTech Laboratories Inc., Palo Alto, Calif., USA) using the Superfectin Reagent Kit pack (QIAGEN Inc., Valencia, Calif., USA). Two hours after adding the DNA, the culture medium was removed, and replaced with complete AMEM (Minimum Essential Medium Eagle's Alpha Modification) medium. […]
Freshly thawed aliquot fractions were used to quantify the proteins, using the MicroBCA Kit pack (Pierce, Rockford, Ill., USA), as well as to quantify the luciferase and beta-galactosidase production, using, respectively, the Tropix Luciferase Assay Kit and Galacto-Light Plus Kit packs. […]

USF1 and USF2 = experiment: Western analysis of USF1 and USF2 in RAW cell nuclear extracts; format: cell-based; details: RAW cells stimulated with cholesterol or oxysterols
Method: RAW cell nuclear extracts (35 μg protein per lane) from cells stimulated with cholesterol or 22-R-hydroxycholesterol were loaded onto NuPage Bis-Tris 4-12% gradient gels (Invitrogen, Carlsbad, Calif.) and run according to manufacturer's specifications. Proteins were transferred to Immobilon-P PVDF membranes (Millipore Corp, Bedford, Mass.). Antibodies (2 mg/ml stock) were from Santa Cruz Biotechnology, Inc. (Santa Cruz, Calif.) and were used according to manufacturer's specifications. Anti-USF1 C20X (catalog number sc-229X) antibody was used at a dilution of 1/600 and anti-USF2 antibodies C20X (catalog number sc862X) and N18X (catalog number sc861X) were used at a dilution of 1/1000.

Structure (SMILES)	Effect on ABC1 gene transcription (luciferase reporter) (human ABC1 promoter)	Gel shift banding patterns with EB probe [1]	Luciferase activity ([2]; Hepa1-6 cells, in the presence of 50 μg/ml cholesterol, cells recovered 16 hours after medium change) [RLU]	Increase in the activity ([2]; in the presence versus absence of cholesterol)	Normalized activity ([2]; luciferase normalized to β-galactosidase, in the presence of 50 μg/ml cholesterol)	Expression of USF immunoreactive bands (43 and 44 KDa) (USF1 and USF2)
CC1=C(/C=C/C(C)=C\C=C\C(C)=C\C(=O)O)C(C)(C)CCC1 [CRA, 9-cis-retinoic acid]	stimulatory effect					
CC(C)CCC[C@@H](C)[C@H]1CC[C@H]2[C@@H]3CC=C4C[C@@H](O)CC[C@]4(C)[C@H]3CC[C@]12C [cholesterol]		No differences	500000	1.82	13.25	not altered
CC(C)CC[C@@H](O)[C@@H](C)[C@H]1CC[C@H]2[C@@H]3CC=C4C[C@@H](O)CC[C@]4(C)[C@H]3CC[C@]12C [oxysterols, 22-(R)-hydroxycholesterol]	stimulatory effect	No differences				not altered
